Measured values taken from patent US20090227492A1, “TREATMENT OF NEUROLOGICAL CONDITIONS USING COMPLEMENT C5a RECEPTOR MODULATORS” (priority 2004, published 2009).
Bridge positions count the residues as written; N and C are the ends. Square brackets hold non-standard residues; d marks the D form. Peptide text beside a SMILES is read from it. * marks the point of attachment. Hydrocinnamoyl = O=C(CCc1ccccc1)*; Cit = NC(=O)NCCC[C@H](N)C(=O)O; dCha = N[C@H](CC1CCCCC1)C(=O)O; Orn = NCCC[C@H](N)C(=O)O

How the values were obtained:
3-NP rat model [1] = assay: 3-NP rat model (3-nitropropionic acid neurotoxicity); assay type: in vivo
Protocol: Unless otherwise stated, the protocol for induction of 3-NP neurotoxicity employed in the present study was similar to that of Blum et al (2001; 2002), except that we used 42 mg/kg/day for 7 days rather than 56 mg/kg for 5 days. Briefly, a 90 mg/mL solution of 3-NP in PBS (0.1 M, pH 7.4) was prepared and adjusted to pH 7.4 with 5M NaOH. Alzet osmotic mini-pumps (model 2ML1, delivering 10 μL/hr for 7 days) filled with this solution were implanted into 12 week old male Lewis rats, so that each rat received exactly 42 mg/kg/day.
Rats were housed in individual cages. The rats were anaesthetised with ketamine, xylazine and zolazapam. A pump was inserted s.c. into the back of each rat via an incision between the scapulae, and the incision closed with wound clips. Following recovery from anaesthesia, food intake, body weight and neurological were evaluated daily over the next 7 days. Neurological and behavioural evaluation according to standard criteria was also performed at several points by an observer blinded to the identity of the groups.
After completion of the study, rats were deeply anaesthetised with xylazine and ketamine. The rats were then perfused with approximately 100 mL of sodium nitrite solution to remove blood, followed by approximately 400 mL of formaldehyde solution to fix the brains in situ. Brains were then carefully removed and stored in formaldehyde solution for at least 3 days, before processing for histology. Slides were stained with cresyl violet and examined by light microscopy. […]
PMX53 (10 mg/kg/day) and PMX205 (10 mg/kg/day) were administered daily by gavage and ibuprofen (30 mg/kg/day) administered in the drinking water, beginning 2 days prior to 3-NP administration. Infliximab was administered as a single 5 mg/kg i.v. infusion on Day 0. […]

3-NP rat model [2] = assay: histological and histochemical examination of rat brain sections from the 3-NP model (naphthyl esterase, TUNEL); assay type: in vivo; details: brain sections of rats of Example 2
Description: Paraffin sections of brain tissue from the rats used in Example 2 were stained with hematoxylin and eosin and examined under the microscope. […] The TUNEL (TdT-mediated dUTP Nick-End Labeling) assay (Gavrieli, Y., et al. (1992) J. Cell. Biol. 119, 493.) measures nuclear DNA fragmentation, which is an important biochemical hallmark of apoptosis. […] Brain sections were therefore also stained for TUNEL analysis using a standard kit (ApopTag Plus/TUNEL method; Chemicon). Striatal sections of brains containing the area of interest were fixed to a slide and deparaffinized. Slides were then pretreated with Proteinase K (20 μg/mL), and endogenous peroxidases quenched with 3% hydrogen peroxide. Equilibration buffer was then added, followed by TdT enzyme for 1 hour. Samples were then washed, and anti-digoxigenin conjugate added for 30 min. Peroxidase substrate (diaminobenzidine) was then added, and colour allowed to develop over 6 min. Samples were then counterstained with 0.5% methyl green and mounted with Permount. Sections were washed in PBS (0.1 M, ph 7.4) in between each step.

[3] = system: Transgenic Sprague-Dawley rats carrying mutant SOD-1 gene; assay: transgenic SOD-1 rat model of ALS; assay type: in vivo; details: approximately 1 mg/kg/day in drinking water from 70 days of age; for average age of onset of loss of motor function: male rats, untreated 116+/−4 days; for percent survival over time (mortality) / percentage of rats showing onset of motor symptoms over time: vs untreated
Protocol: Treatment commenced when the rats were 70 days of age. Drugs were dosed in the drinking water at approximately 1 mg/kg/day. A group of 3 wild type (WT) Sprague-Dawley rats (G63) were included as sham control animals. Rats were then monitored daily for signs of motor disturbance, using the following scale:
Body weights were also recorded daily. Rats were euthanised when they reached a score of 4 for the righting response, or had lost >20% of their peak body weight.

[4] = levels of PMX compounds in brain and plasma following i.v. injection (blood-brain barrier); details: female Wistar rats; 3 mg/kg i.v.; 15 min; brain perfused with saline
Protocol: Rats were then left for 15 min, at which point a sample of blood was taken from the tail for plasma collection, and rats were then perfused via cardiac puncture with 150 mL of saline to remove blood from the brain. The brain was then dissected out. Plasma and brain samples of were prepared for pharmacokinetic analysis, and the levels of PMX compounds determined in each sample.

[5] = Example 2, PMX53, PMX205 10 mg/kg/day gavage, ibuprofen 30 mg/kg/day drinking water, infliximab 5 mg/kg i.v. Day 0, 7 days

Molecule	neurological/behavioural score (3-NP rat model [1]; [5])	degree of apoptosis (TUNEL) (3-NP rat model [2])	neutrophil infiltration (naphthyl esterase stain) (3-NP rat model [2])	average age of onset of loss of motor function [3]	percent survival over time (mortality) [3]	percentage of rats showing onset of motor symptoms over time [3]	other results
CC(=O)N[C@@H](Cc1ccccc1)C(=O)N[C@H]1CCCNC(=O)[C@H](CCCNC(=N)N)NC(=O)[C@H](Cc2c[nH]c3ccccc23)NC(=O)[C@@H](CC2CCCCC2)NC(=O)[C@@H]2CCCN2C1=O [PMX53, AcPhe[Orn-Pro-D-Cyclohexylalanine-Trp-Arg]]	significant protection	reduced the degree of apoptosis	completely prevented neutrophil infiltration	124 ± 10 days	possibly a small improvement	possibly a small improvement	loss of body weight (3-NP rat model [1]; Example 1 pilot, 2 mg/kg daily in drinking water plus 1 mg/kg s.c. Days 0, 3, 6, 8, Days 5-7, P<0.05, n=5, vs untreated): significantly less loss of body weight; neurological/behavioural score (3-NP rat model [1]; Example 1 pilot, 2 mg/kg daily in drinking water plus 1 mg/kg s.c., Days 4-9, P<0.05, n=5, vs untreated): significantly decreased neurological/behavioural scores; food intake (3-NP rat model [1]; Example 1 pilot, 2 mg/kg daily in drinking water plus 1 mg/kg s.c., Days 5-7, P<0.05, n=5, vs untreated): significantly greater food intake; necrotic cells in the striatal regions (cresyl violet histology) (3-NP rat model [1]; Example 1 pilot, vs controls): fewer necrotic cells; necrotic cells in the striatal regions (cresyl violet histology) (3-NP rat model [1]; Example 2, 10 mg/kg/day gavage, day 7): fewer necrotic cells
NC(=O)NCCC[C@@H]1NC(=O)[C@H](Cc2c[nH]c3ccccc23)NC(=O)[C@@H](CC2CCCCC2)NC(=O)[C@@H]2CCCN2C(=O)[C@@H](NC(=O)CCc2ccccc2)CCCNC1=O [PMX200, HC-[OPdChaWCit]] (Hydrocinnamoyl-[Orn]P[dCha]W[Cit]; lactam 1-C)	–	–	–	–	–	–	levels in the brain as a percentage of the levels in the blood (absorption into the brain) [4]: lower degree of absorption
N=C(N)NCCC[C@@H]1NC(=O)[C@H](Cc2c[nH]c3ccccc23)NC(=O)[C@@H](CC2CCCCC2)NC(=O)[C@@H]2CCCN2C(=O)[C@@H](NC(=O)CCc2ccccc2)CCCNC1=O [PMX205, Hydrocinnamate-[OpdChaWR]] (Hydrocinnamoyl-[Orn]P[dCha]WR; lactam 1-C)	significant protection	reduced the degree of apoptosis	completely prevented neutrophil infiltration	138 ± 7 days	clear delay of mortality	clear delay of motor onset	period between the first loss of body weight and the first observable loss of motor function [3]: particularly striking
CC(C)Cc1ccc(C(C)C(=O)O)cc1 (stereo not drawn) [ibuprofen, reference compound]	an effect only up to Day 5	–	–	–	–	–	–
infliximab [reference compound]	little if any effect	–	–	–	–	–	–
